Assay results: patent US20110212078A1, “SYNTHESIS AND USE OF HETEROCYCLIC ANTIBACTERIAL AGENTS” (priority 2008, published 2011)
pIC50: −log10 of the molar value.

The molecules below were run against T1, LpxC enzyme (Escherichia coli, UniProt P0A725) (assay: standard LpxC assay (RapidFire high-throughput mass spectrometry)). Conditions: 0.2 nM LpxC enzyme, 1.0 μM UDP-3-O-(R-3-hydroxymyristoyl)-N-acetylglucosamine, 60 minutes at room temperature; read-out: E. coli IC50.
T1 sequence (P0A725 1-305): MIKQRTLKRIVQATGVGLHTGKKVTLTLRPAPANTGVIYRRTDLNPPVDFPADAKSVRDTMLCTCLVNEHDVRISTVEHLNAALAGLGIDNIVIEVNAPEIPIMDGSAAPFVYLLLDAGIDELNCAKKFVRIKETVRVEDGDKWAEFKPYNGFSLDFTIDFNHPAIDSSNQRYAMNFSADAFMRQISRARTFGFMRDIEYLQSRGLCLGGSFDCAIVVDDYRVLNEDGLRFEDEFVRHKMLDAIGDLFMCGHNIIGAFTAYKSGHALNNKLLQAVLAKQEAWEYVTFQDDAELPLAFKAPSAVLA
Type: biochemical
Method: The standard LpxC assay consists of 0.2 nM LpxC enzyme, 1.0 μM UDP-3-O—(R-3-hydroxymyristoyl)-N-acetylglucosamine, and test compound, in assay buffer and 2% DMSO. Assay buffer is comprised of 25 mM HEPES, pH 7.3, 150 mM NaCl, 2.0 mM DTT, and 0.01% BSA. The enzyme reaction is carried out in a 96-well assay plate, in a final volume of […]. Solutions of test compounds are prepared in 100% DMSO. Reaction additions, in order, are (1) 2.0 μL compound solution, (2) 80 μL of assay buffer, (3) […] of 10 μM UDP-3-O—(R-3-hydroxymyristoyl)-N-acetylglucosamine (in assay buffer) and, (4) 10 μL of LpxC enzyme (20 nM in assay buffer) to initiate the reaction. In positive control reactions, addition (1) has 2.0 μL of 100% DMSO (without compound); these reactions are used as the total signal (TSB) value. Reactions are incubated at room temperature for 60 minutes when 10 μL of 1 N HCl is added to stop the reaction. The plate is shaken by hand for 10 seconds to ensure complete quenching. Assay plates are sealed with foil tape, and stored at −80° C. for 24-48 hr prior to analysis.
The concentrations of substrate and product in the reaction mixtures are determined with BioTrove's proprietary RapidFire™ high-throughput mass spectrometry (HTMS). Assay mixtures are partially purified with reverse phase chromatography, where they are washed with water containing 5 mM ammonium formate and eluted onto the mass spectrometer in 80% acetonitrile, 20% water, and 5 mM ammonium formate. The mass spectrometry peak areas of the substrate and product are measured to determine the concentration of these analytes. The assay signal is the percentage of substrate that is converted to product. Percent inhibition, % I, in test samples is determined from the following equation: […]
Using this method, the following E. coli IC50 (nM) data were obtained for selected Compounds of Formula (I);

Structure (SMILES) | pIC50
C[C@@H](O)[C@@H](C(=O)NO)N1Cc2cc(C#Cc3ccccc3)ccc2C1=O [Compound 11] | > 5.30
C[C@@H](O)[C@@H](C(=O)NO)N1Cc2cc(Br)ccc2C1=O [Compound 12] | > 5.30
C[C@@H](O)[C@@H](C(=O)NO)N1Cc2cc(C#Cc3ccc(-c4ccccc4)cc3)ccc2C1=O [Compound 13] | > 7.30
C[C@@H](O)[C@@H](C(=O)NO)N1Cc2cc(C#Cc3cccc(-c4ccccc4)c3)ccc2C1=O [Compound 14] | > 5.30
C[C@@H](O)[C@@H](C(=O)NO)N1Cc2ccc(C#Cc3ccccc3)cc2C1=O [Compound 20] | > 5.30
C[C@@H](O)[C@@H](C(=O)NO)N1Cc2ccc(Cl)cc2C1=O [Compound 21] | > 5.30
C[C@@H](O)[C@@H](C(=O)NO)N1Cc2cc(-c3ccccc3)ccc2C1=O [Compound 26] | > 5.30
C[C@@H](O)[C@@H](C(=O)NO)N1Cc2cc(Cc3ccc(-c4ccccc4)cc3)ccc2C1=O [Compound 31] | > 7.30
C[C@@H](O)[C@@H](C(=O)NO)N1Cc2cc(-c3ccc(-c4ccccc4)cc3)ccc2C1=O [Compound 32] | > 7.30
C[C@@H](O)[C@@H](C(=O)NO)N1Cc2cc(-c3ccc(C#Cc4ccccc4)cc3)ccc2C1=O [Compound 36] | > 7.30
C[C@@H](O)[C@@H](C(=O)NO)N1Cc2cc(N3CCN(c4ccc(C(=O)Cc5ccccc5)cc4)CC3)ccc2C1=O [Compound 50] | > 5.30
C[C@@H](O)[C@@H](C(=O)NO)N1Cc2cc(N3CCN(c4ccccc4)CC3)ccc2C1=O [Compound 52] | > 5.30
C[C@@H](O)[C@@H](C(=O)NO)N1Cc2cc(N3CCC(c4ccc(-c5ccccc5)cc4)CC3)ccc2C1=O [Compound 53] | > 5.30
CC(O)C(C(=O)NO)n1[nH]c2cc(C#Cc3ccccc3)ccc2c1=O (stereo not shown) [Compound 65] | > 5.30
CC(O)C(C(=O)NO)N1C(=O)c2ccc(C#Cc3ccccc3)cc2C1=O (stereo not shown) [Compound 74] | > 5.30
CC(O)C(C(=O)NO)N1C(=O)c2ccc(-c3ccccc3)cc2C1=O (stereo not shown) [Compound 79] | > 5.30
CC(O)C(C(=O)NO)N1C(=O)c2ccc(Br)cc2C1=O (stereo not shown) [Compound 80] | > 5.30
C[C@@H](O)[C@@H](C(=O)NO)N1CC2CN(Cc3ccc(C#Cc4ccccc4)cc3)CCN2C1=O (stereo partly shown) [Compound 88] | > 5.30
C[C@@H](O)[C@@H](C(=O)NO)N1CC2CN(c3ccc(C#Cc4ccccc4)cc3)CCN2C1=O (stereo partly shown) [Compound 91] | > 5.30
